The record followed here is PMC3025750 (Journal of medicinal chemistry, 2010).

The test system of assay [1] is TCR-induced activation of the proximal IL-2 promoter (NFAT/AP-1) in Jurkat TAg T cells. Briefly: NFAT/AP-1 dual luciferase reporter assay. In kind it is cell-based. To be noted: for NFAT/AP-1 activation in TCR-stimulated sample compared to DMSO control / NFAT/AP-1 signaling in unstimulated sample: 5 μM compound; for NFAT/AP-1 activation in TCR-stimulated sample compared to DMSO control: 45 min, then OKT3 6 hours; for NFAT/AP-1 activation in TCR-stimulated sample compared to DMSO control / NFAT/AP-1 signaling in unstimulated sample / dose-dependence of TCR-induced NFAT/AP-1 activation: Jurkat TAg T cells; for NFAT/AP-1 signaling in unstimulated sample: no TCR stimulation; for dose-dependence of TCR-induced NFAT/AP-1 activation: dose-response 0.1 to 30 μM. On the technique in general: A reporter such as luciferase makes a cellular process visible.

In assay [2] the test system is Lck-pY394 and pζ-chain phosphorylation in Jurkat TAg T cells. Briefly: Immunoblotting of Lyp's substrates Lck-pY394 and pζ-chain after TCR stimulation. The settings on record: 45 min at 37°C, then TCR stimulation, immunoblot. Type of assay: cell-based. Background: A western blot detects proteins with antibodies after separation by electrophoresis.
The next assay addresses recombinant Lyp (Homo sapiens, UniProt Q9Y2R2). To be noted: ratio of IC50 values.

The structures appear in SMILES notation. Entries after “also recorded” stand apart in the source; their conditions may differ. Where only a bound is given, the exact number is not on record here.

Sequence of recombinant Lyp (Q9Y2R2 2-309): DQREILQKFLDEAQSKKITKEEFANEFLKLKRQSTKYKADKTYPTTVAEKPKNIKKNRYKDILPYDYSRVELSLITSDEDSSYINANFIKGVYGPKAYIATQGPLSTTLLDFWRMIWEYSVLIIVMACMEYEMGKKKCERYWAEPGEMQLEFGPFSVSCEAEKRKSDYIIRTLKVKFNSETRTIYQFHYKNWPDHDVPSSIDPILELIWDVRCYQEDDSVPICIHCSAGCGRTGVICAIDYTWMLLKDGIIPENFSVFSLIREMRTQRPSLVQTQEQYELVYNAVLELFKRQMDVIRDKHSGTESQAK

In the case of `O=C(CCCn1cc(-c2c(-c3ccccc3)oc3cc(O)c(C(=O)O)cc23)nn1)Nc1cccc2ccccc12` [Compound 478, reference compound], the “NFAT/AP-1 activation in TCR-stimulated sample compared to DMSO control” value (“NFAT/AP-1 activation … compared to DMSO control” for short) in assay [1] is “did not show an effect”.

On to `O=C(CCCn1cc(-c2c(-c3ccccc3)oc3cc(O)c(C(=O)O)cc23)nn1)Nc1ccc(Br)c2ccccc12` [Compound 482], for which the “NFAT/AP-1 signaling in unstimulated sample” value in assay [1] is listed as “substantially augmented signaling; also recorded: enhanced T cell signaling in a non TCR-mediated manner”.

For the compound `COC(=O)c1cc2c(-c3cn(CCCC(=O)Nc4ccc(Cl)c5ccccc45)nn3)c(-c3ccccc3)oc2cc1O` [Compound 486, Methyl 3-(1-(4-(4-chloronaphthalen-1-ylamino)-4-oxobutyl)-1H-1,2,3-triazol-4-yl)-6-hydroxy-2-phenylbenzofuran-5-carboxylate], in assay [1], the “compound concentration at which NFAT/AP-1 activation was augmented” value (from here on “compound concentration”) was “submicromolar”, the “NFAT/AP-1 activation … compared to DMSO control” value is on record as “considerable higher NFAT/AP-1 activation” and the “dose-dependence of TCR-induced NFAT/AP-1 activation” value (“dose-dependence” for short) is recorded as “dose-dependent effect”. The “concentration at which pTyr levels of Lck-pY394 and pζ-chain were augmented” value (from here on “concentration at which pTyr levels”) in assay [2] is 5 μM.

`O=C(CCn1cc(-c2c(-c3ccccc3)oc3cc(O)c(C(=O)O)cc23)nn1)Nc1cccc2ccccc12` [Compound 495]: the “NFAT/AP-1 activation … compared to DMSO control” value in assay [1] is listed as “considerable higher NFAT/AP-1 activation”.

On to `O=C(CCCCn1cc(-c2c(-c3ccccc3)oc3cc(O)c(C(=O)O)cc23)nn1)Nc1cccc2ccccc12` [Compound 496], for which the “NFAT/AP-1 activation … compared to DMSO control” value in assay [1] is “considerable higher NFAT/AP-1 activation”.

Consider `Cc1ccc(-c2oc3cc(O)c(C(=O)O)cc3c2-c2cn(CCCC(=O)Nc3cccc4ccccc34)nn2)cc1` [Compound 522, 6-hydroxy-3-(1-(4-(naphthalen-1-ylamino)-4-oxobutyl)-1H-1,2,3-triazol-4-yl)-2-p-tolylbenzofuran-5-carboxylic acid], for which, in assay [1], the “compound concentration” value was “submicromolar”, the “NFAT/AP-1 activation … compared to DMSO control” value is listed as “considerable higher NFAT/AP-1 activation” and the “dose-dependence” value was “dose-dependent effect”. For the same compound, in assay [2], the “concentration at which pTyr levels” value is given as 10 μM.

Consider `Cc1ccc(-c2oc3cc(O)c(C(=O)O)cc3c2-c2cn(CCCC(=O)Nc3cccc4cccnc34)nn2)cc1` [Compound 523], for which the “NFAT/AP-1 activation … compared to DMSO control” value in assay [1] was “considerable higher NFAT/AP-1 activation”.

As to `Cc1ccc(-c2oc3cc(O)c(C(=O)O)cc3c2-c2cn(CCCC(=O)Nc3ccc(Cl)c4ccccc34)nn2)cc1` [Compound 525, 3-(1-(4-(4-chloronaphthalen-1-ylamino)-4-oxobutyl)-1H-1,2,3-triazol-4-yl)-6-hydroxy-2-p-tolylbenzofuran-5-carboxylic acid], in assay [1], the “compound concentration” value is recorded as “submicromolar”, the “NFAT/AP-1 activation … compared to DMSO control” value is given as “considerable higher NFAT/AP-1 activation” and the “dose-dependence” value is reported as “dose-dependent effect”. For the same compound, the “concentration at which pTyr levels” value in assay [2] came out at 30 μM.

As for `Cc1ccc(-c2oc3cc(O)c(C(=O)O)cc3c2-c2cn(CCCC(=O)Nc3ccc(Br)c4ccccc34)nn2)cc1` [Compound 526], in assay [1], the “NFAT/AP-1 activation … compared to DMSO control” value is recorded as “modest” and the “NFAT/AP-1 signaling in unstimulated sample” value is “substantially augmented signaling; also recorded: enhanced T cell signaling in a non TCR-mediated manner”. For the same compound, on recombinant Lyp, the “improvement of Lyp inhibitory activity over the original compound 478” value was 17 fold.

Consider `Cc1ccc(-c2oc3cc(O)c(C(=O)O)cc3c2-c2cn(CCC(=O)Nc3cccc4ccccc34)nn2)cc1` [Compound 530], for which the “NFAT/AP-1 activation … compared to DMSO control” value in assay [1] is listed as “considerable higher NFAT/AP-1 activation”.

Turning to `COc1ccc(-c2oc3cc(O)c(C(=O)O)cc3c2-c2cn(CCCC(=O)Nc3cccc4ccccc34)nn2)cc1` [Compound 584, 6-hydroxy-2-(4-methoxyphenyl)-3-(1-(4-(naphthalen-1-ylamino)-4-oxobutyl)-1H-1,2,3-triazol-4-yl)benzofuran-5-carboxylic acid], in assay [1], the “compound concentration” value was “submicromolar”, the “NFAT/AP-1 activation … compared to DMSO control” value is on record as “considerable higher NFAT/AP-1 activation” and the “dose-dependence” value is reported as “dose-dependent effect”. Also, in assay [2], the “concentration at which pTyr levels” value is on record as 3 μM.

Take `COc1ccc2nc(NC(=O)CCCn3cc(-c4c(-c5cccc(C)c5)oc5cc(O)c(C(=O)O)cc45)nn3)sc2c1` [Compound 630, 6-hydroxy-3-(1-(4-(6-methoxybenzo[d]thiazol-2-ylamino)-4-oxobutyl)-1H-1,2,3-triazol-4-yl)-2-m-tolylbenzofuran-5-carboxylic acid]: in assay [1], the “compound concentration” value is at least 3 µM, the “NFAT/AP-1 activation … compared to DMSO control” value is “considerable higher NFAT/AP-1 activation” and the “dose-dependence” value is on record as “dose-dependent effect”. Moreover, in assay [2], the “concentration at which pTyr levels” value was 30 μM.
